The text below walks through data of patent publication EP4763228A1, “PENTACYCLIC ACTIVE COMPOUND AND CONJUGATE THEREOF AND USE THEREOF” (Keymed Biosciences (Chengdu) Co., Ltd., priority 2023, dated 2025).

Some test systems named below: A549 tumor cells; SK-BR-3 tumor cells; NCI-N87 tumor cells.
Assay in all cases: In vitro proliferation inhibition of compounds of formula (GH), CCK8, 6 days
Common to all, as to assay type: cell-based, human

[1] abbreviates: conclusion in words, comparison with Reference 1 at the same dose.

The structures appear in SMILES notation.

Experimental for A549 tumor cells: (§1) The object of this experiment is to test the in vitro killing activity of the compounds of the formula (GH) of the present disclosure on A549 tumor cells (human lung cancer cells, Beijing Tongren Hospital), SK-BR-3 tumor cells (human breast cancer cells, Wuhan Punosai, Cat. No. CL-0211) and NCI-N87 tumor cells (human gastric cancer cells, Cell Resource Center, Institute of Basic Medical Sciences, Chinese Academy of Medical Sciences, Cat. No. 3111C0001CCC000481). The cells were treated with different concentrations of the compounds in vitro and cultured for 6 days, then the in vitro activity of the test compounds was evaluated based on IC50 values by measuring the number of viable cells using CCK8 (Cell Counting Kit-8, Cat. No. TS547) reagent.
(§2) Taking the test method of in vitro killing activity against A549 cells, SK-BR-3 cells and NCI-N87 cells as an example, the test was carried out as follows. […] After the cells were completely digested, 10 mL cell culture medium containing 10% FBS was added, the digested cells were eluted, centrifuged at 300 g for 5 min, and the supernatant was discarded. […]
Experimental for NCI-N87 tumor cells: as §1, §2
Experimental for SK-BR-3 tumor cells: as §1, §2

For orientation: IC50 means the concentration needed to halve the response being measured. Turning to `O=C1OCc2c(cc3n(c2=O)Cc2c-3nc3cc4c(cc3c2CCCCO)OCO4)[C@@]1(O)CC1CC1` [Compound 3], the IC50 in the assay with A549 tumor cells (Homo sapiens, 144 h, A549 cells, 6 days, CCK8, 2% FBS) amounted to 1.68 nM; in the assay with SK-BR-3 tumor cells (Homo sapiens, 144 h, SK-BR-3 cells, 6 days, CCK8, 2% FBS) it was 0.24 nM; in the assay with NCI-N87 tumor cells (Homo sapiens, 144 h, NCI-N87 cells, 6 days, CCK8, 2% FBS), 0.44 nM. The “inhibitory effect on the proliferation of A549 cells in vitro” value in the assay with A549 tumor cells (setting [1]) was “significantly higher inhibitory effect”. The “inhibitory effect on the proliferation of SK-BR-3 cells in vitro” value in the assay on SK-BR-3 tumor cells (setting [1]) is recorded as “significantly higher inhibitory effect”. Besides, in the assay on NCI-N87 tumor cells (setting [1]), the “inhibitory effect on the proliferation of NCI-N87 cells in vitro” value was “significantly higher inhibitory effect”.
